Reference: patent US20230027075A1, “SULFONAMIDE COMPOUNDS TARGETING CD73 AND ADENOSINE RECEPTORS” (Aurigene Discovery Technologies Limited, priority 2019, published 2023)

Key:
[1] = target: T1, human-CD73 (Trp27-Lys547, His-tag) (Homo sapiens, UniProt P21589); test: CD73 biochemical assay (colorimetric, Malachite Green phosphate detection); conditions: 2 nM CD73, 50 μM AMP
T1 construct: human-CD73 (Trp27-Lys547, His-tag); His-tag
T1 sequence (P21589 27-547): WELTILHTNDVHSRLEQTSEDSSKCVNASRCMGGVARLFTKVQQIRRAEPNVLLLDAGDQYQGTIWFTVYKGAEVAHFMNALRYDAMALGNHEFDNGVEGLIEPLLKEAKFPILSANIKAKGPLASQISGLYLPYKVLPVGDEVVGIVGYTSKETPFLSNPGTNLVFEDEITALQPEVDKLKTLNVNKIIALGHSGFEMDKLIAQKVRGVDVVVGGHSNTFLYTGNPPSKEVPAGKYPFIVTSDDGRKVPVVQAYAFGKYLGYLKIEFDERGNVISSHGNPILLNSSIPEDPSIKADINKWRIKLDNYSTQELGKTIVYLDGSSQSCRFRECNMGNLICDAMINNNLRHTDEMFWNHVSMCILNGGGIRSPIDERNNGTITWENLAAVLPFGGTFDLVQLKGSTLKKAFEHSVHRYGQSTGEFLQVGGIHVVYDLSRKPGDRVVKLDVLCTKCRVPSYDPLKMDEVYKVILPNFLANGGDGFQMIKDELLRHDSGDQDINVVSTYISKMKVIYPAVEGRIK
Experimental: A colorimetric-based method was used for assaying compounds of the invention for CD73 enzyme inhibitory activity. Human CD73 catalyzes the conversion of AMP to adenosine with the release of orthophosphate. A Malachite Green Phosphate Detection kit is used to measure the formation of orthophosphate product. […] A compound of the present invention and enzyme are incubated for 30 minutes at room temperature. Next, 20 μL of AMP in assay buffer is added to the plate. The final concentration of CD73 and AMP are 2 nM and 50 μM respectively. Following 30 minutes reaction at room temperature, 20 μL of Malachite reagent is added to all the reaction wells. The formation of green complex formed between Malachite Green, molybdate and free orthophosphate is measured on a plate reader (620 nm).

A2aR = target: T2, A2aR (Homo sapiens, UniProt P29274); test: A2aR biochemical assay (TR-FRET binding, Tag-lite A2aR labelled cells, fluorescent antagonist); conditions: 20 μM compound; 10 nM fluorescent A2aR antagonist; vs DMSO control; read-out: % inhibition at 20 μM (Percent inhibition data in A2aR)
T2 construct: expressed in transfected cells
Experimental: The compounds of present invention were assayed for A2aR enzyme binding activity in a TR-FRET based method. Typically, 10 μL of A2aR labelled cells in assay buffer (Tag-lite, 1×) is added to a 384-well plate containing 5 μL of a compound of present invention in final 1% DMSO, serially diluted in 1:5 in a 5-6 point titration. The aforesaid compound and cells are incubated for 30 minutes at room temperature. Next, 5 μL of A2aR antagonist (fluorescent ligand) in assay buffer is added to the plate. The final concentration of A2aR antagonist is 10 nM. Following 30 minutes reaction at room temperature, the plate was read on a plate reader (Ex: 340 nm Em: 615 nm and 665 nm) to measure the binding of test compound to A2aR cells. The results are interpreted as percentage inhibition as presented in Table-2A of binding by the test compound with respect to the DMSO control.

T2 sequence (P29274 whole entry): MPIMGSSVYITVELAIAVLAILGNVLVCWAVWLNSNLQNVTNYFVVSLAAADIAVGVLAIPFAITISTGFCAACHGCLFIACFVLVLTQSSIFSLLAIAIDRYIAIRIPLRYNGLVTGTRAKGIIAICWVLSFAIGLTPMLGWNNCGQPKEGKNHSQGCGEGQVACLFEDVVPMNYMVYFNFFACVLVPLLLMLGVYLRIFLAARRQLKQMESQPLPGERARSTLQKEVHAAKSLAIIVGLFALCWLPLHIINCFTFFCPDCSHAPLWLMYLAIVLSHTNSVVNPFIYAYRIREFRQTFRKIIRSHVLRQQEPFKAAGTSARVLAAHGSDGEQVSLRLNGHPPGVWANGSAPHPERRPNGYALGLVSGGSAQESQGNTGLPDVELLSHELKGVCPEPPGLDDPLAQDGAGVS

inhibition at 20 µM ([1]; 20 μM compound, read-out: % inhibition at 20 μM (Percent inhibition data in CD73)): 94%
IC50 ([1]; four-parameter curve fit, read-out: Potency (IC50 values) of selected compounds in CD73, group): < 100 nM
inhibition at 20 µM (A2aR): 82%
SMILES: NC(=O)c1cc(S(=O)(=O)Nc2ccc(CCCNc3nc(N)n4nc(-c5ccco5)nc4n3)c(F)c2)cc(Cl)c1O [Example A14, 5-(N-(4-(3-((7-amino-2-(furan-2-yl)-[1,2,4]triazolo[1,5-a][1,3,5]triazin-5-yl)amino)propyl)-3-fluorophenyl)sulfamoyl)-3-chloro-2-hydroxybenzamide]
